Assay results from patent US7439359B2, “Small molecule compositions for binding to hsp90” (Sloan-Kettering Institute for Cancer Research, priority 2000, dated 2008).
Like-named read-outs stand apart in the source and are kept apart here.

Assays:
MCF-7 = test: Growth inhibition, sulforhodamine B assay; format: cell-based, human; conditions: unit inferred
From the text: (§1) Protein Assays. […] Antiproliferative index. […] Tissue Culture IC50 Studies. […] Her2 degradation. Total Protein Assays. […] Binding studies. Solid phase competition assays.

MDA-MB-468 = test: Growth inhibition, sulforhodamine B assay; format: cell-based, human; conditions: unit inferred
From the text: as §1

Hsp90 beta = molecular target: T1, Hsp90 beta (Homo sapiens, UniProt P08238); test: Solid phase competition assay with GM-beads, Hsp90 beta immunoblot; format: binding; conditions: for EC50: competition with immobilized GM, unit inferred, read-out: EC50 Hsp90 β
T1 construct: purchased Stressgen SPP-770
T1 sequence (P08238 whole entry): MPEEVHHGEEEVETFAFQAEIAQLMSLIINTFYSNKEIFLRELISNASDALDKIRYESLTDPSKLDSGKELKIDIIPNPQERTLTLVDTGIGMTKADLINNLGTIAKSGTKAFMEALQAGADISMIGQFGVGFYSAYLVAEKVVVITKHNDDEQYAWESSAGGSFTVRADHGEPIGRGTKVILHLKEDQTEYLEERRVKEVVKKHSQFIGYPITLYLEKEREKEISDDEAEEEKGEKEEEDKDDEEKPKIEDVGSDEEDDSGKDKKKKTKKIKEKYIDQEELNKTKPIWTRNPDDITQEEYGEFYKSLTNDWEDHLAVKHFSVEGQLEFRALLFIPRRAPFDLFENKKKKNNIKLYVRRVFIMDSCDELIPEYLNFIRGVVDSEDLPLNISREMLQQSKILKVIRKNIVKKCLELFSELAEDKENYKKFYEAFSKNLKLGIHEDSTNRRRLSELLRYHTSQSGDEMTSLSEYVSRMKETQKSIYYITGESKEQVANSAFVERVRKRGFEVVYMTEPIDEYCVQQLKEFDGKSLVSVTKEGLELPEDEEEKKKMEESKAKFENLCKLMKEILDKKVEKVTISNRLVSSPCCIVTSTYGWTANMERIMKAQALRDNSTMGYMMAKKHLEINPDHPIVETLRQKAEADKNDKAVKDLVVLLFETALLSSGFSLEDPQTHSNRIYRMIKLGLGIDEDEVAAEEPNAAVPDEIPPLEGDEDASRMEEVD
Experimental: (§2) A test was also designed which allows identification of compounds which interact differentially with Hsp90-alpha and Hsp90-beta. […] An Hsp90 protein preparation containing both the alpha and the beta form is incubated with the support in the presence or absence of a compound to be evaluated. […] After washing, the material bound to the support is eluted and the eluate is separated on an SDS/PAGE gel and visualized by immunoblotting with anti-Hsp90-alpha and anti-Hsp90-beta to determine the amount of material bound. Alternatively, if quantitative amounts of the Hsp90 protein preparation or known ratios of alpha to beta forms of Hsp90 are used in the first instance, the unbound material can be analyzed by a similar technique.
as §1

Hsp90alpha = Hsp90alpha (Homo sapiens, UniProt P07900); test: Solid phase competition assay with GM-beads, Hsp90 alpha immunoblot; format: binding; design: purchased Stressgen SPP-770; conditions: for EC50: competition with immobilized GM, unit inferred, read-out: EC50 Hsp90 α
Experimental: as §2, §1

Her2 = Her2 total protein degradation in MCF-7 cells (immunoblot);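 further: Her2 levels judged by SDS-PAGE western blot of whole-cell lysates probed with anti-Her2 antibody, compared with DMSO vehicle-treated cells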
Experimental: For assays on protein levels, cells were grown to 60-70% confluence exposed to drugs or DMSO vehicle for the indicated time periods. Lysates were prepared using 50 mM Tris pH=7.4, 2% SDS and 10% glycerol lysis buffer. Protein concentration was determined using the BCA kit (Pierce Chemical Co.), according to the manufacturers instructions. Clarified protein lysates (20-50 mg) were electrophoretically resolved on denaturing SDS-PAGE, transferred to nitrocellulose and probed with the following primary antibodies: anti-Her2 (C-18), -Her3 (C-17), -Raf-1, -cyclin D1, -Rb (C-15) (Santa Cruz), anti-hsp90, -hsp70, -ER (Stressgen), anti-Trap-1 (MSK81), anti-b-actin, -tubulin (Sigma), anti-PI3K (p85) (Upstate Biotechnologies).
After 24 hours, the cells were lysed and the amount of Her2 in the cells was evaluated.
Protein Assays. Cells were grown to 60-70% confluence and exposed to drugs or DMSO vehicle for the indicated time periods. Lysates were prepared using 50 mM Tris pH 7.4, 2% SDS and 10% glycerol lysis buffer. Protein concentration was determined using the BCA kit (Pierce Chemical Co.), according to the manufacturers instructions. Clarified protein lysates (20-50 mg) were electrophoretically resolved on denaturing SDS-PAGE, transferred to nitrocellulose and probed with the following primary antibodies: anti-Her2 (C-18), -Her3 (C-17), -Raf-1, -cyclin D1, -Rb (C-15) (Santa Cruz Biotechnology), anti-hsp90, -hsp70 (Stressgen) anti-Trap-1 (MSK81), anti-b-actin, -tubulin (Sigma), ER, anti-PI3K (p85) (Upstate Biotechnologies). […] Her2 degradation. Total Protein Assays. Cells were grown to 60-70% confluence and exposed to drugs or DMSO vehicle for the indicated time periods. Lysates were prepared using 50 mM Tris pH 7.4, 2% SDS and 10% glycerol lysis buffer. Protein concentration was determined using the BCA kit (Pierce Chemical Co.), according to the manufacturers instructions. Clarified protein lysates (20-50 μg) were electrophoretically resolved on denaturing SDS-PAGE, transferred to nitrocellulose and probed with the anti-Her2 primary antibody (C-18) (Santa Cruz Biotechnology).

[1] = Homo sapiens, MDA-MB-468, 72 hours
[2] = Homo sapiens, MCF7, read-out: IC50 Her2/MCF-7
[3] = read-out: IC50 Her2/MCF-7, Her2 total protein degradation in MCF-7, unit inferred

CC=CCn1c(Cc2cc(OC)c(OC)c(OC)c2)nc2c(N)ncnc21 (mixture of isomers) [PU11]
IC50 (MCF-7; 72 hours): 51 µM
IC50 (MDA-MB-468; 72 hours): 66 µM

C#CCCCn1c(Cc2cc(OC)c(OC)c(OC)c2)nc2c(N)ncnc21 [PU24]
EC50 (Hsp90 beta): 1.5 µM
IC50 (MCF-7; Homo sapiens, MCF7, 72 hours): 24 µM
IC50 (MDA-MB-468; [1]): 41 µM
EC50 (Hsp90alpha): 2.6 µM
IC50 (Her2; [2]): 20 µM

C=CCCn1c(Cc2cc(OC)c(OC)c(OC)c2)nc2c(N)ncnc21 [PU8]
EC50 (Hsp90 beta): 10.6 µM
IC50 (MCF-7; 72 hours): 41 µM
IC50 (MDA-MB-468; 72 hours): 73 µM
EC50 (Hsp90alpha): 4 µM
IC50 (Her2; [3]): 30 µM

CCn1c(Cc2cc(OC)c(OC)c(OC)c2)nc2c(N)ncnc21 [PU22]
IC50 (MCF-7; 72 hours): 80 µM
IC50 (MDA-MB-468; 72 hours): 118 µM

COc1cc(Cc2nc3c(N)ncnc3n2CC2CCC2)cc(OC)c1OC [PU16]
EC50 (Hsp90 beta): 32 µM
IC50 (MCF-7; 72 hours): 46 µM
IC50 (MDA-MB-468; 72 hours): 68 µM
EC50 (Hsp90alpha): 17 µM
IC50 (Her2; [3]): 60 µM

COc1cc(Cc2nc3c(N)ncnc3n2CC2CCCO2)cc(OC)c1OC (stereo not shown) [PU20]
EC50 (Hsp90 beta): 3.4 µM
IC50 (MCF-7; Homo sapiens, MCF7, 72 hours): 92 µM
IC50 (MDA-MB-468; [1]): 80 µM
EC50 (Hsp90alpha): 4.4 µM
IC50 (Her2; [2]): 70 µM

COc1cc(Cc2nc3c(N)ncnc3n2CC(OC)OC)cc(OC)c1OC [PU25]
IC50 (MCF-7; 72 hours): 82 µM

CC/C=C/Cn1c(Cc2cc(OC)c(OC)c(OC)c2)nc2c(N)ncnc21 [PU23]
EC50 (Hsp90 beta): 9.5 µM
IC50 (MCF-7; 72 hours): 47 µM
IC50 (MDA-MB-468; 72 hours): 55 µM
EC50 (Hsp90alpha): 13.3 µM
IC50 (Her2; [3]): 50 µM

COc1cc(Cc2nc3c(N)ncnc3n2CC(C)C)cc(OC)c1OC [PU41]
EC50 (Hsp90 beta): 20.4 µM
IC50 (MCF-7; 72 hours): 98 µM
IC50 (MDA-MB-468; 72 hours): 70 µM
EC50 (Hsp90alpha): 16.6 µM
IC50 (Her2; [3]): 100 µM

COc1cc(Cc2nc3c(N)nc(F)nc3n2CCOC(C)C)cc(OC)c1OC [PU29F, 2-Fluoro-9-(2-isopropoxy-ethyl)-8-(3,4,5-trimethoxy-benzyl)-9H-purin-6-ylamine]
EC50 (Hsp90 beta): 1.3 µM
IC50 (MCF-7; Homo sapiens, MCF7, 72 hours): 16 µM
IC50 (MDA-MB-468; [1]): 16 µM
EC50 (Hsp90alpha): 2 µM
IC50 (Her2; [2]): 15 µM

COc1cc(Cc2nc3c(N)ncnc3n2CCOC(C)C)cc(OC)c1OC [PU29]
EC50 (Hsp90 beta): 1.7 µM
IC50 (MCF-7; 72 hours): 39 µM
IC50 (MDA-MB-468; 72 hours): 72 µM
EC50 (Hsp90alpha): 1.4 µM
IC50 (Her2; [3]): 45 µM

CCCn1c(Cc2cc(OC)c(OC)c(OC)c2)nc2c(N)ncnc21 [PU43]
EC50 (Hsp90 beta): 10.8 µM
IC50 (MCF-7; 72 hours): 47 µM
IC50 (MDA-MB-468; 72 hours): 54 µM
EC50 (Hsp90alpha): 6.6 µM
IC50 (Her2; [3]): 50 µM

CC/C=C\Cn1c(Cc2cc(OC)c(OC)c(OC)c2)nc2c(N)ncnc21 [PU7]
EC50 (Hsp90 beta): 75 µM
IC50 (MCF-7; 72 hours): 64 µM
IC50 (MDA-MB-468; 72 hours): 80 µM
EC50 (Hsp90alpha): 17.6 µM
IC50 (Her2; [3]): 70 µM

COc1cc(Cc2nc3c(N)ncnc3n2C)cc(OC)c1OC [PU13]
IC50 (MCF-7; 72 hours): 70 µM
IC50 (MDA-MB-468; 72 hours): 75 µM

CCCCn1c(Oc2cc(OC)c(OC)c(OC)c2)nc2c(N)ncnc21 [Compound 69, 9-Butyl-8-(3,4,5-trimethoxy-phenoxy)-9H-purin-6-ylamine]
binding to hsp 90-beta (Hsp90 beta): weak binding
binding to hsp 90-alpha (Hsp90alpha): no detectable binding

COc1cc(Cc2nc3c(N)ncnc3n2CCCC(C)C)cc(OC)c1OC [PU9]
EC50 (Hsp90 beta): 114 µM
IC50 (MCF-7; 72 hours): 69 µM
IC50 (MDA-MB-468; 72 hours): 85 µM
EC50 (Hsp90alpha): 28 µM

CCCCn1c(Cc2c(Br)c(OC)c(OC)c(OC)c2Br)nc2c(N)ncnc21 [PU3PhBr2, 9-butyl-8-(2,6-dibromo-3,4,5-trimethoxy-benzyl)-9H-purin-6-ylamine]
EC50 (Hsp90 beta): > 100 µM
IC50 (MCF-7; Homo sapiens, MCF7, 72 hours): 30 µM
IC50 (MDA-MB-468; [1]): 21 µM
EC50 (Hsp90alpha): > 100 µM
IC50 (Her2; [2]): > 100 µM

CCC(C)Cn1c(Cc2cc(OC)c(OC)c(OC)c2)nc2c(N)ncnc21 (stereo not shown) [PU26]
EC50 (Hsp90 beta): 15.7 µM
IC50 (MCF-7; 72 hours): 62 µM
IC50 (MDA-MB-468; 72 hours): 71 µM
EC50 (Hsp90alpha): 25.3 µM
IC50 (Her2; [3]): 70 µM

CCCCCn1c(Cc2cc(OC)c(OC)c(OC)c2)nc2c(N)ncnc21 [PU21]
EC50 (Hsp90 beta): 11.8 µM
IC50 (MCF-7; Homo sapiens, MCF7, 72 hours): 62 µM
IC50 (MDA-MB-468; [1]): 73 µM
EC50 (Hsp90alpha): 22.5 µM
IC50 (Her2; [2]): 50 µM

COc1cc(Cc2nc3c(N)ncnc3n2CC2(C)CC2)cc(OC)c1OC [PU30]
EC50 (Hsp90 beta): 47.8 µM
IC50 (MCF-7; 72 hours): 111 µM
EC50 (Hsp90alpha): 111 µM
IC50 (Her2; [3]): 120 µM
